Experimental data published in patent US5856127A, “Antimicrobial peptides” (The Research Foundation of State University of New York, priority 1996, dated 1999).
Where a SMILES comes first, the peptide text is derived from it.

Assays:
[1] = system: Septoria musiva; experiment: MIC against fungal conidia (Septoria musiva); assay type: cell-based; conditions: strain 92-49C, PDAmb pH 5.2, scored at 6 days, total prevention of germination
Description: (§1) Dilutions of peptides, prepared in sterile deionized water, were placed (20 μl aliquots) in Corning disposable sterile polystyrene ELISA plates (96 well, high binding) which had been pretreated with bovine serum albumin by rinsing each well with 200 μl of a 1.0 mg/ml solution.
(§2) Media (PDAmb, pH 5.2) was prepared with deionized water, Difco potato dextrose broth (12 g/L), Sigma D,L-methionine (0.05 g/L), Sigma biotin (2 mg/L), and FisherBiotech low melting point agarose (20 g/L). Sterilized media was added to the wells to make a final volume of 100 μl and allowed to harden for 3 hr prior to inoculation with 10 μl of conidial suspension. Peptide concentrations tested were 0, 1.25, 2.5, 5, 10, 15, 20, 25, 50, 100, 150, 200, and 250 μM.
(§3) Fungal conidial suspensions were aseptically prepared from agar plate cultures of C. parasitica and S. musiva or liquid cultures for F. oxysporum f.sp. lycopersici. Conidia were suspended from agar plates with 10 ml sterile 1% Tween 20. All culture suspensions were filtered through four layers of sterile cheesecloth, collected in sterile 15 ml Falcon tubes, and centrifuged for 3 min at 1900×g. The pellets were then suspended in 10 ml sterile deionized water and centrifuged for 3 min at 1900×g. The "washed" pellets were suspended in 5 ml sterile deionized water. The conidial concentration was determined using a hemocytometer (Fisher ultra plane, Neubauer ruling) and then diluted to 1.0×10^4 conidia/ml.
(§4) Approximately 100 conidia (10 μl) were transferred to each microtitre plate well. Microtitre plates were incubated in ambient light at room temperature in a moist chamber (plastic box containing wet paper towels and covered with clear plastic wrap). Tests with S. musiva used continuous light. Plates were scored for growth at 6 days and photographed. All tests were repeated 4 or more times. Controls without peptides were included with all tests.

[2] = system: Fusarium oxysporum; experiment: MIC against fungal conidia (Fusarium oxysporum); assay type: cell-based; conditions: f. sp. lycopersici strain 73, PDAmb pH 5.2, scored at 6 days
Description: as §1, §2, §3, §4

[3] = system: Cryphonectria parasitica; experiment: MIC against fungal conidia (Cryphonectria parasitica); assay type: cell-based; conditions: strain EP42, PDAmb pH 5.2, scored at 6 days
Description: as §1, §2, §3, §4

[4] = system: Pseudomonas aeruginosa; conditions: against Pseudomonas aeruginosa; cited from earlier work
[5] = combined with either magainin I or magainin II in a 1:1 molar ratio; cited from earlier work
[6] = system: Candida albicans; conditions: against the yeast Candida albicans; cited from earlier work
[7] = system: Malus domestica pollen; assay type: cell-based; conditions: pH 6.2
Description: Apple (Malus domestica) cultivar "Empire" pollen was supplied by Susan Brown, Department of Horticultural Sciences, Cornell University, New York State Agricultural Experiment Station, Geneva, N.Y.
(§5) To rehydrate, small amounts of pollen were placed in open microfuge tubes (1.5 ml) which were placed into a closed glass petri dish with a dampened tissue. Pollen was rehydrated overnight in a dark chamber at 14° C.
(§6) Rehydrated plant pollen was diluted with sucrose-boric acid medium ("SBM") to a concentration of 80 grains/μl (Neubauer hemocytometer). Media for pollen germination (SBM, pH 6.2) was prepared with deionized distilled water, sucrose (150 g/L), and boric acid (150 mg/L). Dilutions of all peptides tested against rehydrated pollen grains were aseptically prepared with sterile SBM. Aliquots (50 μl) of peptide solutions were aseptically placed in ELISA microtitre plates as before. Approximately 400 pollen grains (5 μl) were added to the 50 μl volume of peptide solution in the well to give the final peptide concentrations of 0, 1.25, 2.5, 5, 10, 15, 20, 25, 50, 100, 150, 200, and 250 μM. Microtitre plates were incubated in the dark at room temperature for 24 hr. […] All tests were repeated 4 or more times. Controls without peptides were included with all tests. The highest concentration tested was 250 μM.

[8] = system: Lycopersicon esculentum pollen; assay type: cell-based; conditions: pH 6.2
Description: (§7) Pollen collections for Chinese chestnut (Castanea mollissima), tomato (Lycopersicon esculentum), and willow (Salix lucida) clone 507 were made in central New York. Chestnut catkins and tomato flowers were placed into paper bags in an ice chest. Within 2 hr after collection, catkins were cut into 1.0 cm segments and tomato anthers were placed into sterile 15 ml Falcon tubes. The tubes were "capped" with parafilm punctured with 12-15 holes and lyophilized for 24 hr. Lyophilized samples were stored at -20°C. until removed for rehydration.
as §5, §6

[9] = system: Castanea mollissima pollen; assay type: cell-based; conditions: pH 6.2
Description: as §7, §5, §6

[10] = system: Salix lucida pollen; assay type: cell-based; conditions: pH 6.2
Description: Willow pollen was extracted using the protocol described by de Niella and Maynard (1993). Catkins were gently stirred in carbon tetrachloride. The pollen/carbon tetrachloride suspension was filtered (Whatman filter paper) with suction. The pollen was transferred to microfuge tubes (1.5 ml) with a fine-bristle artist's brush and stored at -20° C.
as §5, §6

[11] = system: microorganisms and animal red blood cells; conditions: cited from earlier work
[12] = system: Agrobacterium tumefaciens; experiment: MIC against bacteria (Agrobacterium tumefaciens); assay type: cell-based; conditions: wild-type strain Bo542, no visible lawn or colonies after 3 days
Description: as §1
(§8) Bacterial suspensions of A. tumefaciens, E. amylovora, and P. syringae were obtained from liquid cultures grown in Luria Broth (Atlas and Parks 1993). Cultures were grown at 25°C. on a rotary shaker (110 rpm) for 14 hr. Bacterial cell suspensions with an optical density between 0.7 and 0.85 at 600 nanometers (OD600) were used for assay inoculations. Dilutions of peptides were placed in the 96-well ELISA plates as described above. The final peptide concentrations tested were 0, 0.625, 1.25, 2.5, 5, 10, 15, 20, 25, 50, 100, and 250 μM. All tests were repeated 2 or more times. Controls without peptides were included with all tests. The MIC for bacterial cells was the lowest peptide concentration associated with no visible bacterial lawn or isolated colonies on the medium after 3 days in all the repeated tests.

[13] = system: selected filamentous fungi; experiment: Activity against filamentous fungi relative to magainin (applicants' observation); assay type: cell-based; conditions: three amino acid substitution versus magainin
[14] = system: Erwinia amylovora; experiment: MIC against bacteria (Erwinia amylovora); assay type: cell-based; conditions: Collection 88-100, no visible lawn or colonies after 3 days
Description: as §1, §8

[15] = system: Pseudomonas syringae; experiment: MIC against bacteria (Pseudomonas syringae); assay type: cell-based; conditions: Collection PSS34, no visible lawn or colonies after 3 days
Description: as §1, §8

[16] = system: bacteria; experiment: Activity against bacteria relative to magainin (applicants' observation); assay type: cell-based; conditions: three amino acid substitution versus magainin

Molecule | MIC, Septoria musiva [1] | MIC, Fusarium oxysporum [2] | MIC, Cryphonectria parasitica [3] | MIC, Castanea mollissima [9] | MIC, Salix lucida [10] | also measured
Magainin I | 5 µM | 15 µM | 10 µM | – | – | –
cecropin B | 5 µM | 20 µM | 15 µM | – | – | –
PGLa | – | – | – | – | – | times more active than XPF [4]: 4-5 times; increase of antimicrobial activity [5]: 20-50 fold
XPF | – | – | – | – | – | times more effective than PGLa [6]: 2-2.5 times
CSCC[C@H](N)C(=O)N[C@@H](C)C(=O)N[C@@H](CO)C(=O)N[C@@H](CCCNC(=N)N)C(=O)N[C@@H](C)C(=O)N[C@@H](C)C(=O)NCC(=O)N[C@@H](CC(C)C)C(=O)N[C@@H](C)C(=O)N[C@@H](C)C(=O)N[C@@H](CCCNC(=N)N)C(=O)N[C@@H](CC(C)C)C(=O)N[C@@H](C)C(=O)N[C@@H](CCCNC(=N)N)C(=O)N[C@@H](CC(C)C)C(=O)N[C@@H](C)C(=O)N[C@@H](CC(C)C)C(=O)N[C@@H](CCCNC(=N)N)C(=O)O [ESF12] (H-MASRAAGLAARLARLALR-OH) | – | – | – | > 250 µM | > 250 µM | MIC, Malus domestica [7]: > 250 µM; MIC, Lycopersicon esculentum [8]: > 250 µM
CC[C@H](C)[C@H](NC(=O)CN)C(=O)NCC(=O)N[C@@H](C)C(=O)N[C@H](C(=O)N[C@@H](CC(C)C)C(=O)N[C@@H](CCCCN)C(=O)N[C@H](C(=O)N[C@@H](CC(C)C)C(=O)N[C@H](C(=O)N[C@H](C(=O)NCC(=O)N[C@@H](CC(C)C)C(=O)N1CCC[C@H]1C(=O)N[C@@H](C)C(=O)N[C@@H](CC(C)C)C(=O)N[C@H](C(=O)N[C@@H](CO)C(=O)N[C@@H](Cc1c[nH]c2ccccc12)C(=O)N[C@H](C(=O)N[C@@H](CCCCN)C(=O)N[C@@H](CCCNC(=N)N)C(=O)N[C@@H](CCCCN)C(=O)N[C@@H](CCCNC(=N)N)C(=O)N[C@@H](CCC(N)=O)C(=O)N[C@@H](CCC(N)=O)C(N)=O)[C@@H](C)CC)[C@@H](C)CC)[C@@H](C)O)[C@@H](C)O)C(C)C)C(C)C [melittin] | – | – | – | – | – | lytic activity [11]: very lytic
CSCC[C@H](N)C(=O)N[C@@H](C)C(=O)N[C@@H](CO)C(=O)N[C@@H](CCCNC(=N)N)C(=O)N[C@@H](C)C(=O)N[C@@H](C)C(=O)NCC(=O)N[C@@H](CC(C)C)C(=O)N[C@@H](C)C(=O)N[C@@H](CCCNC(=N)N)C(=O)N[C@@H](CCCNC(=N)N)C(=O)N[C@@H](CC(C)C)C(=O)N[C@@H](C)C(=O)N[C@@H](CCCNC(=N)N)C(=O)N[C@@H](CC(C)C)C(=O)N[C@@H](C)C(=O)N[C@@H](CCCNC(=N)N)C(=O)N[C@@H](CCCNC(=N)N)C(=O)N[C@@H](C)C(=O)N[C@@H](CC(C)C)C(=O)O [ESF5] (H-MASRAAGLARRLARLARRAL-OH) | – | – | – | > 250 µM | > 250 µM | –
(Ala^8,13,15)magainin II [Ala^8,13,15 Magainin II] | 10 µM | 15 µM | 30 µM | – | – | MIC, Agrobacterium tumefaciens [12]: 100 µM; change of magainin activity against selected filamentous fungi [13]: opposite effect; MIC, Erwinia amylovora [14]: 250 µM; MIC, Pseudomonas syringae [15]: 250 µM; change of magainin activity against bacteria [16]: increased magainin activity against bacteria
CSCC[C@H](N)C(=O)N[C@@H](C)C(=O)N[C@@H](CO)C(=O)N[C@@H](CCCNC(=N)N)C(=O)N[C@@H](C)C(=O)N[C@@H](C)C(=O)NCC(=O)N[C@@H](CC(C)C)C(=O)N[C@@H](C)C(=O)N[C@@H](C)C(=O)N[C@@H](CCCNC(=N)N)C(=O)N[C@@H](CC(C)C)C(=O)N[C@@H](C)C(=O)N[C@@H](CCCNC(=N)N)C(=O)N[C@@H](CC(C)C)C(=O)N[C@@H](C)C(=O)N[C@@H](CC(C)C)C(=O)N[C@@H](CCCNC(=N)N)C(=O)N[C@@H](C)C(=O)N[C@@H](CC(C)C)C(=O)O [ESF1] (H-MASRAAGLAARLARLALRAL-OH) | – | – | – | > 250 µM | > 250 µM | –
CSCC[C@H](N)C(=O)N[C@@H](C)C(=O)N[C@@H](C)C(=O)N[C@@H](CCCNC(=N)N)C(=O)N[C@@H](C)C(=O)N[C@@H](C)C(=O)NCC(=O)N[C@@H](CC(C)C)C(=O)N[C@@H](C)C(=O)N[C@@H](C)C(=O)N[C@@H](CCCNC(=N)N)C(=O)N[C@@H](CC(C)C)C(=O)N[C@@H](C)C(=O)N[C@@H](C)C(=O)N[C@@H](CC(C)C)C(=O)N[C@@H](C)C(=O)N[C@@H](CC(C)C)C(=O)N[C@@H](CCCNC(=N)N)C(=O)N[C@@H](C)C(=O)N[C@@H](CC(C)C)C(=O)O [ESF6] (H-MAARAAGLAARLAALALRAL-OH) | – | – | – | > 250 µM | > 250 µM | –
